In US9889234B2, “Scaffold for hard tissue regeneration containing active ingredient for treating osteoporosis and preparing method thereof” (KOREA INSTITUTE OF MACHINERY AND MATERIALS, priority 2014, dated 2018):

Key:
[1] = Drug releasing characteristics of the active ingredient from the scaffold; format: physicochemical
Experimental: To evaluate the drug releasing characteristics of the active ingredient included in the scaffold, the scaffold for hard tissue regeneration (containing Quercetein by 200 μm/scaffold) prepared in Example 1 was dipped in body fluid like PBS (phosphate buffered saline) or de-ionized water in a 37° C. shaker. Sampling of the solution was performed hourly and the concentration of Quercetein released in the solution was measured. Quercetein is a hydrophobic material, so that it is very difficult to detect the concentration by dissolving. To evaluate the drug releasing activity in a solution where the active material is dissolved, the experiment was equally performed with ethanol, the dissolving solvent.
The following experiment was performed by the same manner as described in Example <1-1> except that the scaffold for hard tissue regeneration (containing Genistein by 200 μm/scaffold) prepared in Example 3 instead of the scaffold for hard tissue regeneration (containing Quercetein by 200 μm/scaffold) prepared in Example 1.

[2] = tested on: MC3T3-E1 cells; test: Osteoblast proliferation activity, MTS assay, drug in medium; format: cell-based
Experimental: MC3T3-E1 cells (MC3T3-E1 Subclone 4, ATCC CRL-2593, obtained from ATCC) were cultured in α-MEM (α-Minimum Essential Medium, GIBCO) supplemented with FBS (Fetal Bovine Serum) and penicillin/streptomycin under the standard culture condition (37° C., 5% CO2). When the cells were grown to 70˜80% confluency, the cells were trypsinized. Then, the cells were collected by centrifugation.
The collected MC3T3-E1 cells were seeded at the density of 1.0×10^4 cells, followed by standard culture for 2 hours. The medium containing Quercetein at the concentrations of 0, 1, 10, 50, 100, and 200 μm was added thereto.
To observe the metabolic activity of the seeded MC3T3-E1 cells, colorimetric 3-(4,5-dimethylthiazole-2-yl)-5-(3-carboxymethoxyphenol)-2-(4-sulfophenyl)-2H-tetrazolium (MTS) assay (CellTiter 96® AQeous One solution Cell Proliferation Assay, Promega) was performed according to the manufacturer's instruction. The MTS tetrazolium compound is converted biologically and dissolved in the tissue culture medium by the cells into a formazan product displaying highest absorbance at 490 nm.
The following experiment was performed by the same manner as described in Experimental Example <2-1> except that Genistein was used instead of Quercetein.

[3] = tested on: RAW 264.7 cells, the multinuclear osteoclasts treated with RANKL; test: Osteoclast proliferation activity, drug in medium; format: cell-based; settings: for inhibition of osteoclast proliferation, ranking among Quercetein, Genistein, Alendronate: same dose; for proliferation of osteoclasts: compared with the case not treated, 1 μM or 200 μM
[4] = Solubility of the active ingredient; format: physicochemical
[5] = determined from the proliferation of osteoblasts

| Structure (SMILES) | Genistein released ([1]; from scaffold of Example 3 (200 μm/scaffold), ethanol, early 5 days) | Genistein released ([1]; from scaffold of Example 3, de-ionized water and PBS, over 55 days, without early acute release) | proliferation of osteoblasts ([2]; 1 μM, day 3 and day 5) | promoting effect on osteoblast proliferation relative to Quercetein ([2]; 1 μM, day 3 and day 5) | proliferation of osteoblasts ([2]; concentration increased from 1 to 10 μM, vs non-treated group) | proliferation of osteoblasts ([2]; concentration over 10 μM) | most preferable concentration (osteoblast proliferation) [2, 5] | preferable concentration (osteoblast proliferation) [2, 5] | inhibition of osteoclast proliferation, ranking among Quercetein, Genistein, Alendronate ([3]; 1 μM) | proliferation of osteoclasts [3] | solubility in an aqueous solution [4] | solubility in ethanol compared with that of Quercetein ([4]; ethanol, from comparison of release results) | Quercetein released ([1]; from scaffold of Example 1 (200 μm/scaffold), ethanol, 37° C. shaker, over 40 days, without early acute release) | Quercetein released ([1]; from scaffold of Example 1, de-ionized water and PBS, 37° C., early 20 days) | Quercetein released ([1]; from scaffold of Example 1, de-ionized water and PBS, 37° C., over 68 days) | Quercetein released ([1]; from scaffold, de-ionized water and PBS, over 60 days) | effect on the proliferation of osteoblasts ([2]; 200 μM, day 3 and day 5, comparison with Alendronate) | proliferation of osteoblasts ([2]; concentration increased from 1 to 200 μM, vs non-treated group, day 1, 3, 5) | inhibition of osteoclast proliferation, ranking among Quercetein, Genistein, Alendronate ([3]; 200 μM) |
| --- | --- | --- | --- | --- | --- | --- | --- | --- | --- | --- | --- | --- | --- | --- | --- | --- | --- | --- | --- |
| O=c1c(-c2ccc(O)cc2)coc2cc(O)cc(O)c12 [Genistein] | 100% | 60% | promoted the proliferation of osteoblasts | greater than that of Quercetein | increased | rather inhibited | 1 µM | 1˜10 μM | most excellent in inhibiting the proliferation of osteoclasts | significantly inhibited | low | even higher |  |  |  |  |  |  |  |
| O=c1c(O)c(-c2ccc(O)c(O)c2)oc2cc(O)cc(O)c12 [Quercetein] |  |  | promoted the proliferation of osteoblasts |  |  |  |  | 1˜200 μM |  | significantly inhibited | low |  | 100% | 10% | approximately 50% | 50% | increased the proliferation significantly | increased Quercetein dose-dependently | most excellent in inhibiting the proliferation of osteoclasts |
